Data: PubChem BioAssay (NCI)
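Interpolation was linear, between the two tested concentrations surrounding the appropriate level; five concentrations were tested over 48 hours in 96-well plates. TGI marks complete inhibition of growth.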

Key:
Test in all cases: inhibition of tumour cell growth, NCI panel, 48 h
[1] = system: MDA-N
[2] = system: XF 498 CNS
[3] = system: HOP-18 NSCLC
[4] = system: LXFL 529 NSCLC
[5] = system: T-47D breast
[6] = system: DMS 114 small cell lung
[7] = system: M19-MEL melanoma
[8] = system: RXF-631 renal
[9] = system: SNB-78 CNS

`Cc1ccc2oc(=O)c3c(O)c4cccc(OC5OC(C)C6O[C@@H](c7ccccc7)OC6C5OC5OC(C)C(O)C(O)C5O)c4c4oc(=O)c1c2c34` (some centres undefined) gave a TGI [1] of 1.72 µM, a TGI [2] of 2.05 µM and a TGI [3] of 19.4 µM. The TGI [4] was 6.5 µM, the TGI [5] was 1.23 µM and the TGI [6] was 3.16 µM. The TGI [7] was 3.43 µM, the TGI [8] was 4.4 µM and the TGI [9] was 5.23 µM.
